In patent publication US9399649B2, “Compounds for treating spinal muscular atrophy” (PTC Therapeutics Inc., priority 2012, dated 2016):

Legend:
Smn protein = Smn protein assay in human motor neurons; format: cell-based; settings: human motor neurons derived from SMA iPS cells, 72 hours, increasing concentrations, FIG. 10
Description: Smn immunofluorescent confocal microscopy is used to quantify the level of Smn protein in human motor neurons treated with test compounds.
Human motor neurons derived from SMA iPS cells (Ebert et al., Nature, 2009, […]; and, Rubin et al., BMC Biology, 2011, 9:42) are treated with test compound at various concentrations for 72 hours. The level of Smn protein in the cell nucleus is quantified using Smn immunostaining and confocal fluorescence microscopy essentially as described in Makhortova et al., Nature Chemical Biology, 2011, 7:544. The level of Smn protein in compound-treated samples is normalized to that in vehicle-treated samples and plotted as a function of the compound concentration.

[1] = system: full length and Δ7 SMN2 mRNA; assay: Endogenous SMN2 mRNA RT-qPCR splicing assay in cultured cells; format: cell-based, human; settings: Type 1 SMA patient fibroblasts (GM03813), increasing concentrations, 24 hr, FIG. 4
Description: The reverse transcription-quantitative PCR-based (RT-qPCR) assay is used to quantify the levels of the full length and Δ7 SMN2 mRNA in primary cells and cell lines containing the SMN2 gene treated with a test compound.
GM03813 SMA patient cells (5,000 cells/well) are seeded in 200 μL, of cell culture medium (DMEM plus 10% FBS) in 96-well flat-bottom plates and the plate is immediately swirled to ensure proper dispersal of cells, forming an even monolayer of cells. Cells are allowed to attach for at least 4-6 hrs. Test compounds are serially diluted 3.16-fold in 100% DMSO to generate a 7-point concentration curve. A solution of test compound (1 μL, 200× in DMSO) is added to each test well and 1 μL, DMSO is added to each control well. The plate is incubated for 24 hrs in a cell culture incubator (37° C., 5% CO2, 100% relative humidity). The cells are then lysed in Cells-To-Ct lysis buffer and the lysate is stored at 80° C.
SMN2-specific spliced products and GAPDH mRNA are identified using the following primers and probes in Table 5. Primer SMN FL Forward B (SEQ ID NO. 7) hybridizes to a nucleotide sequence in exon 7 (nucleotide 32 to nucleotide 54) and exon 8 (nucleotide 1 to nucleotide 4), primer SMN Δ7 Forward B (SEQ ID NO. 8) hybridizes to a nucleotide sequence in exon 6 (nucleotide 87 to nucleotide 111) and exon 8 (nucleotide 1 to nucleotide 3), primer SMN Reverse B (SEQ ID NO. 9) hybridizes to a nucleotide sequence in exon 8 (nucleotide 39 to nucleotide 62), probe SMN Probe B (SEQ ID NO. 10) hybridizes to a nucleotide sequence in exon 8 (nucleotide 7 to nucleotide 36). These primers and probe hybridize to nucleotide sequences common to human SMN1 and SMN2 mRNA. Since the SMA patient cells used in Example 3 contain only the SMN2 gene, RT-qPCR can quantify only SMN2 full-length and Δ7 mRNA.
The SMN forward and reverse primers are used at final concentrations of 0.4 μM. The SMN probe is used at a final concentration of 0.15 μM. GAPDH primers are used at final concentrations of 0.1 μM and the probe at 0.075 μM. The One-Step RT-PCR kit was used as the Real-Time PCR Mix. […]
The increase of SMN2 FL and decrease in SMN2 Δ7 mRNA relative to those in cells treated with vehicle control are determined from real-time PCR data using a modified ΔΔCt method (as described in Livak and Schmittgen, Methods, 2001, 25:402-8). The amplification efficiency (E) is calculated from the slope of the amplification curve for SMN2 FL, SMN2 Δ7, and GAPDH individually. The abundances of SMN2 FL, SMN2 Δ7, and GAPDH are then calculated as (1+E)^−Ct, where Ct is the threshold value for each amplicon. […]

[2] = Body weight of neonatal Δ7 SMA mice; format: in vivo; settings: neonatal SMA Δ7 homozygous knockout mice, IP QD PND 3 to PND 23, then orally BID from PND 24 until study end, FIG. 13
Description: The change in body weight of neonatal SMA mice is used to determine whether treatment with a test compound improves body weight.
SMA Δ7 homozygous knockout mice are dosed intraperitoneally (IP) with test compound or vehicle (100% DMSO) QD from PND 3 until the dose regimen is switched to an oral dose BID in 0.5% hydroxypropylmethyl cellulose (HPMC) with 0.1% Tween-80 at a dose 3.16-fold higher than the dose used for IP. Body weights of SMA Δ7 mice treated with test compound or vehicle and age matched heterozygous mice are recorded every day.

| SMILES | Smn protein in the nucleus (Smn protein) | SMN2 FL mRNA relative to vehicle [1] | SMN2 Δ7 mRNA relative to vehicle [1] | body weight [2] |
| --- | --- | --- | --- | --- |
| Cc1cn2cc(-c3cc4ccc(N5CCN6CCC[C@H]6C5)cc4c(=O)o3)nc2c(C)n1 [Cpd 69, 3-(6,8-dimethylimidazo[1,2-a]pyrazin-2-yl)-7-[(8aS)-hexahydropyrrolo[1,2-a]pyrazin-2(1H)-yl]-1H-isochromen-1-one] | progressively more Smn protein in the nucleus | progressively more SMN2 FL mRNA | less SMN2 Δ7 mRNA | improved compared to vehicle treated mice |
| Cc1cn2cc(-c3cc4ccc(N5CCN(C)CC5)cc4c(=O)o3)nc2c(C)n1 [Cpd 65, 3-(6,8-dimethylimidazo[1,2-a]pyrazin-2-yl)-7-(4-methylpiperazin-1-yl)-1H-isochromen-1-one] | progressively more Smn protein in the nucleus | progressively more SMN2 FL mRNA | less SMN2 Δ7 mRNA | improved compared to vehicle treated mice |
